Data set [1] deals with T1, paraoxon-hAChE (Homo sapiens, UniProt P22303). It is filed as biochemical.
Data set [2] addresses T1, paraoxon-hAChE. Conditions: cited from earlier work.
For data set [3] the following is noted: rat brain microdialysis, HPLC/UV; cited from earlier work.

Structures are written as SMILES. Where two headings read alike, the source gives them in different places.

T1 sequence (P22303 32-574): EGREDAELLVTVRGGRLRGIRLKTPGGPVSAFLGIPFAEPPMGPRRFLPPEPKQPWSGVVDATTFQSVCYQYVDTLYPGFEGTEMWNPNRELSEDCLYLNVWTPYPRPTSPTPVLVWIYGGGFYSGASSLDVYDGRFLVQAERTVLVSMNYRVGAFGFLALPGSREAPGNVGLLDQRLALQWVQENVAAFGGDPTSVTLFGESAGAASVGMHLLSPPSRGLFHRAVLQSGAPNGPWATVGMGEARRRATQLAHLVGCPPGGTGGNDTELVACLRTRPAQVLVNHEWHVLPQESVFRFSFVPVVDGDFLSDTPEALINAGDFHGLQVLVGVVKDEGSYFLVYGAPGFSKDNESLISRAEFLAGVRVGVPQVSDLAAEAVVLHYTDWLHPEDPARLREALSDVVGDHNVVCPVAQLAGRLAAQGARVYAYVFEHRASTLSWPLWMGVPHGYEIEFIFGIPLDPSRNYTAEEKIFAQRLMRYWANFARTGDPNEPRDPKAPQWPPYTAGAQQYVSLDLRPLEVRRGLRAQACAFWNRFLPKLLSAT

At paraoxon-hAChE [1], `O/N=C/c1nc(CCCCCNc2c3c(nc4ccccc24)CCCC3)ccc1O` [Compound 11, 2-[(1E)-(hydroxyimino)methyl]-6-{5-[(1,2,3,4-tetrahydroacridin-9-yl)amino]pentyl}pyridin-3-ol] showed a kr of 0.0228 ± 0.0006 min⁻¹ and a kr2 of 348 M⁻¹ s⁻¹.

Take `ON=Cc1cc[n+](CCC[n+]2ccc(/C=N/O)cc2)cc1` [Trimedoxime]: on paraoxon-hAChE [2], the kr was 0.34 ± 0.02 ^a min^−1 and the kr2 was 17 ^a mM^−1min^−1.

In the case of `C[n+]1ccccc1/C=N/O` [Compound 2-PAM], the BBB penetration in data set [3] is given as 10%.

Turning to `ON=Cc1nccc(CCCCCNc2c3c(nc4ccccc24)CCCC3)c1O` [Compound 10, 2-[(hydroxyimino)methyl]-4-{5-[(1,2,3,4-tetrahydroacridin-9-yl)amino]pentyl}pyridin-3-ol], the “reactivation of paraoxon inhibited hAChE” value at paraoxon-hAChE [1] is listed as “no reactivation”.

At paraoxon-hAChE [1], `ON=Cc1nc(CCCCNc2c3c(nc4ccccc24)CCCC3)ccc1O` [Compound 12, 2-[1-(hydroxyimino)methyl]-6-{4-[(1,2,3,4-tetrahydroacridin-9-yl)amino]butyl}pyridin-3-ol] displayed a kr of 0.111 ± 0.002 min⁻¹ and a kr2 of 517 M⁻¹ s⁻¹.

With `ON=Cc1nc(CCCCNc2c3c(nc4ccc(Cl)cc24)CCCC3)ccc1O` [Compound 15, 6-(4-((7-Chloro-1,2,3,4-tetrahydroacridin-9-yl)amino)butyl)-3-hydroxy-picolin-aldehyde oxime], at paraoxon-hAChE [1], the kr worked out at 0.11 ± 0.01 min⁻¹ and the kr2 was found to be 317 M⁻¹ s⁻¹.

These data come from US20160272620A1 (priority 2013, published 2016).
